Measurements reported in patent US20140348966A1, “GARCINIA BUCHANANII BAKER COMPOUNDS, COMPOSITIONS AND RELATED METHODS” (priority 2011, published 2014).
pEC50: −log10 of the molar value. Structures can show the parent of a compound that is named as a salt. Where two headings read alike, the source gives them in different places.

Key:
[1] = hydrogen peroxide scavenging assay; format: biochemical; conditions: isolated and reference compounds; read-out: H2O2 assay EC50
Experimental: Hydrogen peroxide scavenging assay was performed in accordance with the method of Ichikawa, M. and colleagues (2002). Sample solutions at appropriate concentration were prepared using phosphate buffer (100 mM, pH 6.0). Sample solution ([…]), phosphate buffer (30 mL, 100 mM, pH 6.0), and hydrogen peroxide solution (10 mL, 500 mM) were mixed in 96-well clear microplate (VWR, Ismaning, Germany). Then peroxidase (40 mL, 150 U/mL) and ABTS (40 mL, 0.1%) were added. The microplate was incubated at 37° C. for 15 min. The absorbance (A) of each well was measured at 414 nm with FLUOstar OPTIMA (BMG LABTECH, Offenburg, Germany). […] After freeze-drying three times 1 MPLC fractions M1-M8 were analyzed in natural concentrations.
E=[(A−Ablank)control−(A−Ablank)test]/(A−Ablank)control·100

[2] = oxygen radical absorbance capacity (ORAC) assay; format: biochemical; conditions: isolated and reference compounds
Experimental: ORAC assay was carried out according to the method of Ou, G. and colleagues (1993) with some modifications. Trolox and FL were used as a standard and a fluorescent probe respectively. Free radicals were produced by AAPH to oxidize FL. Different dilutions of Trolox ([…]) and appropriate dilutions of tested sample were prepared with phosphate buffer (10 mM, pH 7.4). Trolox dilution ([…]) or sample solution were pipetted into a well of 96-well black microplate (VWR) and then FL (150 mL, 10 nM) was added. The reaction mixture was incubated at 37° C. for 30 min Afterward s, fluorescence was measured every 90 sec at the excitation of 485 nm and the emission of 520 nm using FLUOstar OPTIMA. After 3 cycles, AAPH ([…], 240 mM) was added quickly, and then the measurement was resumed and continued up to 90 min (60 cycles in total). The background signal was determined using the first 3 cycles. The ORAC values were calculated according to the method of Ou, G. and colleagues (1993) and expressed as Trolox equivalent (mmol TE/mmol). After freeze-drying in triplicate, MPLC fractions M1-M8 were analyzed in natural concentrations.

guinea pig distal colon = test: fecal pellet propulsion motility assay in isolated distal colon (GIMM); conditions: MPLC fractions and their main compounds, serosal application in Krebs
Experimental: Gastrointestinal Motility Assays: Segments (˜10 cm long) of distal colon were pinned on either end in a Sylgard-lined 50 mL organ bath, continuously perfused with oxygenated Krebs solution (rate: 10 mL min^−1) and maintained at temperatures between 36 and 37° C. Tissues were initially allowed to equilibrate for 30 mins in re-circulating Krebs solution. Colonic motility was studied using the Gastronintestinal Motility Monitoring system (GIMM; Med-Associates Inc., Saint Albans, Vt., USA), which included a digital video camera (Catamount Research and Development Inc, St Albans, Vt., USA) to film fecal pellet propulsion. Trials were separated by 5-min recovery periods between successive pellet runs. The GIMM system software calculated velocities by tracking pellets as they traversed colon segments. After initial equilibration, five pellet propulsion trials in vehicle solution were obtained to determine the basal velocity for each tissue preparation. To reduce variations between runs and experiments, the values obtained were used to generate a normalized basal velocity by dividing the values of the 4th-5th runs by the value of the 1st-2nd runs. Garcinia buchananii stem bark extract and test compounds dissolved in 100 mL of Krebs solution were superfused either into the organ bath or into the lumen of the colon using polyethylene tubing [PE 205; outside diameter 9.5 mm (BD-Worldwide, Sparks, Md., USA)]. The effects of extract and test compounds were evaluated by obtaining velocities of four trials taken at 5-min intervals (5-20 min) Normalized velocity data for these treatments were obtained by dividing the test velocities acquired by the average velocity of the five pellet propulsion runs performed in vehicle solution (runs 1-5, above). Normalized data became ratios without units, and were presented as a percent velocity of basal activity for each tissue. Velocities of pellet propulsion were also studied during washout of tissue with Krebs solution (after extract or test compound application) for 20 min
A segment (˜10-12 cm long) of distal colon was pinned on either end in a Sylgard-lined 50 mL organ bath being continuously perfused with oxygenated Krebs solution (rate: 10 mL min^−1) and maintained at temperatures between 36-37° C. Nail-polish-coated guinea-pig pellets similar in shape and size to the “native” colonic fecal pellets were used to determine propulsive velocities using the Gastrointestinal Motility Monitoring system (Med-Associates Inc., Saint Albans, Vt., USA) for filming pellet propulsion as described by Hoffman and others (2010). Velocity was calculated based on the time required for pellets to traverse 5-6 cm of the central colon segment ending 1 cm from the aboral end. Data collection started after 30 minutes of equilibration. A five-minute interval was used to allow equilibration of motor activity between successive pellet runs. Baseline velocities were measured for 20 minutes.
In intraluminal studies, the aqueous extract was prepared by suspending 2 g of G. buchananii bark powder in 100 mL Krebs, whereas 1 g G. buchananii bark powder prepared in the same manner was used for bath (serosal) applications. The extract-Krebs mixture was continuously stirred for 30 minutes and filtered using analytical filter paper (Schleicher and Schuell Blue Ribbon filter paper 589/3; 0.2 μm retention). Garcinia buchananii extract and test compounds were delivered to isolated colons in Krebs solution, and evaluated for effects on pellet propulsion during 20-25 minute time intervals. Intraluminal drug deliveries (350 μL min^−1 Krebs solution) were performed using polyethylene tubing (PE 205; outside diameter 9.5 mm) inserted ˜1.5 cm into the oral end of the segments. In bath deliveries, G. buchananii extract and test compounds were superfused directly into the organ bath. Studies involving PTLC fractions were performed using the organ bath delivery method only.

[3] = system: guinea pig gallbladder smooth muscle cells (GBSM); test: intracellular microelectrode recording of action potentials, gallbladder smooth muscle; conditions: extract 0.5 g stem bark powder/100 ml; manniflavanone 41.0 mg/100 mL Krebs
Experimental: (§1) Calcium imaging and standard intracellular microelectrode recording were used to determine the effect of G. buchananii extract on the discharge and frequency of Ca^2+ transients, Ca^2+ flashes and Ca^2+ waves. Six fractions (M1-M5 and M7) collected using medium pressure liquid chromatography and manniflavanone, a pure compound from M3 were analyzed for the effect on the resting membrane potential and action potentials in intact GBSM preparations, and slow wave action potentials in CSMC in guinea pig and porcine colon.

[4] = system: guinea pig colon circular smooth muscle cells (CSMC); test: intracellular recording of slow wave action potentials, colon circular smooth muscle; conditions: extract 0.5 g stem bark powder/100 ml Krebs; manniflavanone 41.0 mg/100 mL Krebs
Experimental: as §1

[5] = system: S-neurons in the myenteric ganglia of guinea pig distal colon; test: intracellular recording of evoked fast excitatory postsynaptic potentials (fEPSPs); conditions: naloxone 10 μmol/L; yohimbine 1 μmol/L
Experimental: Intracellular Recording: To study fast excitatory postsynaptic potentials, longitudinal muscle-myenteric plexus preparations of guinea pig colon were pinned and stretched in a 2.5 mL Sylgard-lined recording chamber. […] Myenteric ganglia were visualized at ×200 using Hoffman modulation contrast optics on an inverted microscope (Nikon Diaphot, […]., USA). Individual neurons were randomly impaled using glass microelectrodes, which were filled to the shoulder with 1.0 mol L^-1 KCl and topped off with 2.0 mol L^-1 KCl, generating a range of 50-150 MΩ input resistance. Membrane potential was measured with an Axoclamp-2A amplifier (Axon Instruments, Union City, Calif., USA) and the electrical signals were acquired and analyzed using PowerLab Chart version 5.01 (ADlnstruments, Castle Hills, Australia). Input resistance and resting membrane potential were determined for neurons before and after exposure to G. buchananii extract. Using monopolar extracellular electrodes made from Teflon®-insulated platinum wire, synaptic input to myenteric neurons was elicited by direct single pulse stimuli (0.5 ms duration) applied to interganglionic fiber tracts. […] The amplitude was measured by taking the difference in voltage between the peak of each fEPSP and the membrane holding potential. […]

[6] = cited from earlier work
[7] = Values from Wolfe and Liu (stereochemistry of naringenin and taxifolin not stated)

Row | SMILES | pEC50 [1] | ORAC assay [2] [μmol TE/μmol] | further results
1 | O=C1c2c(O)cc(O)c([C@@H]3C(=O)c4c(O)cc(O)cc4O[C@H]3c3ccc(O)c(O)c3)c2O[C@H](c2ccc(O)c(O)c2)[C@H]1O [Compound 3, (2R,3S,2″R,3″R)-manniflavanone] | 5.55 | 13.73 | action potentials in GBSM [3]: inhibits action potentials; slow wave action potentials (SW) in CSMC [4]: inhibits spikes of SW
2 | COC(=O)[C@@H]1[C@H]2C[C@H]3c4[nH]c5ccccc5c4CCN3C[C@@H]2CC[C@@H]1O [yohimbine, yohimbine hydrochloride] |  |  | effect of antagonist alone on fEPSPs [5]: had no effect on fEPSPs
3 | O=C1O[C@H]([C@@H](O)CO)C(O)=C1O [ascorbic acid] | 4.73 | 0.34 | 
4 | Oc1cc(O)c2c(c1)O[C@H](c1ccc(O)c(O)c1)[C@H](O)C2 [(−)-epicatechin] | 5.39 | 9.65 | ORAC, Literature [6, 7]: 9.14^6 μmol TE/μmol
5 | C=CCN1CC[C@]23c4c5ccc(O)c4O[C@H]2C(=O)CC[C@@]3(O)[C@H]1C5 [naloxone, naloxone hydrochloride] |  |  | effect of antagonist alone on fEPSPs [5]: had no effect on fEPSPs

More lines, in order of rising pEC50 [1], values ahead:

Row | pEC50 [1] | SMILES | ORAC assay [2] [μmol TE/μmol] | further results
6 | 4.84 | O=C1C[C@@H](c2ccc(O)c(O)c2)Oc2c1c(O)cc(O)c2[C@@H]1C(=O)c2c(O)cc(O)cc2O[C@H]1c1ccc(O)c(O)c1 [Compound 5, (2R,3S,2″S)-2-(3,4-dihydroxyphenyl)-2,2′,3,3′-tetrahydro-5,5,7,7-tetrahydroxy-2′-(3,4-dihydroxyphenyl)-[3,8′-Bi-4H-1-benzopyran]-4,4′-dione] | 10.50 | effect on pellet propulsion velocity (guinea pig distal colon): inhibits guinea pig colon propulsive motility
7 | 4.96 | O=C1c2c(cc(O)c([C@@H]3O[C@H](CO)[C@@H](O)[C@H](O)[C@H]3O)c2O)O[C@H](c2ccc(O)c(O)c2)[C@H]1O [Compound 1, (2R,3R)-Taxifolin-6-C-β-D-glucopyranoside] | 9.57 | 
8 | 4.96 | O=C1c2c(cc(O)c([C@@H]3OC(CO)[C@@H](O)[C@H](O)C3O)c2O)O[C@H](c2ccc(O)cc2)[C@H]1O (stereo partly drawn) [Compound 2, (2R,3R)-Aromadendrin-6-C-β-D-glucopyranoside] | 4.23 | 
9 | 5.07 | O=C1CC(c2ccc(O)cc2)Oc2cc(O)cc(O)c21 (racemic) [(±)-naringenin] | 3.96 | 
10 | 5.21 | O=c1c(O)c(-c2ccc(O)c(O)c2)oc2cc(O)cc(O)c12 [quercetin] | 5.61 | ORAC, Literature ([6]; Values from Ou et al.): 7.28 μmol TE/μmol; ORAC, Literature [6, 7]: 8.04 μmol TE/μmol
11 | 5.66 | O=C1c2c(O)cc(O)c([C@@H]3C(=O)c4c(O)cc(O)cc4O[C@H]3c3ccc(O)cc3)c2O[C@H](c2ccc(O)c(O)c2)[C@H]1O [Compound 4, (2R,3S,2″R,3″R)-GB-2] | 12.10 | effect on pellet propulsion velocity (guinea pig distal colon): inhibits guinea pig colon propulsive motility
